Measurements taken from patent US20250288515A1, “METHOD AND COMPOSITION FOR TREATING LUNG DISEASES” (MannKind Corporation, priority 2022, published 2025).

Test: Pharmacokinetic study in rats, pulmonary insufflation versus intravenous injection
Assay type: in vivo
Details: male Sprague Dawley rats, single dose 0.8 mg/kg, samples 10-240 minutes; FIG. 5
Description: Pharmacokinetic studies in rats with Compound I crystalline composite (XC) dry powders-Insufflation studies were performed in rats to deliver doses of dry powders of Compound I, a protein kinase antagonist. The study was performed to determine the pharmacokinetics profile of compound I dry powders made by the process as described above following pulmonary insufflation, or intravenous injection of a single dose of the composition administered in solution to male Sprague Dawley (Charles River Laboratories) adult rats, weighing between 200 g and 250 g at the time of the study. Dry powder comprising 22.1 wt % actual drug content were used and tested at 1 mg/ml in solution to deliver a dose of 0.8 mg/kg to 18 rats in each study group. Rats acclimatized and anesthetized prior to experimentation. Lung and blood samples were taken from the rats at 10, 20, 30, 120, and 240 minutes, post drug administration.

## Cc1cccc(-n2ncc(C)c2-c2cc3cnccc3s2)n1 [compound I, 2 [4-methyl-1-(6-methylpyridin-2yl)-1H-pyrazol-5-yl]thieno-[3,2 c]pyridine]
  Lung content of compound I after insufflation versus IV injection: higher content of compound I was detected in rat lung after insufflation versus IV injection
